# From patent publication US20260285857A1, “BICYCLIC AND HETEROCYCLIC AMIDE COMPOUNDS” (priority 2024, published 2026)
# System: immunoglobulin light chain protein WIL-FL T46L
# Assay: Differential scanning fluorimetry (thermal shift) assay
# Assay type: binding
# Details: Table A; temperature shift [Tm]compound-[Tm]vehicle; recombinant WIL-FL T46L
row,Compound,DSF
1,COc1ccc([C@@]2(C)CCN(c3cc(C)c4nc(C(=O)N5CC[C@@]6(CCN(c7cccc(C(=O)O)n7)C6)C5)nn4c3)C2)cc1 [Compound 411],***** (>2.5° C.=*****)
2,Cc1cc(OC(C)c2ccc(F)c(Cl)c2)cn2nc(C(=O)N3CC[C@@]4(CCC(c5cccc(C(=O)O)n5)C4)C3)nc12 (some centres unmarked) [Compound 412],* (0-0.5° C.=*)
3,Cc1cc(N2CCC(C)(c3ccc(O)cc3)C2)cn2nc(C(=O)N3CC[C@@]4(CCN(c5cccc(C(=O)O)n5)C4)C3)nc12 (some centres unmarked) [Compound 413],**** (>1.5-2.5° C.=****)
4,Cc1ccc([C@@]2(C)CCN(c3cc(C)c4nc(C(=O)N5C[C@@H]6CN(c7cccc(C(=O)O)n7)C[C@@H]6C5)nn4c3)C2)cc1 [Compound 414],***** (>2.5° C.=*****)
5,Cc1cccc([C@@]2(C)CCN(c3cc(C)c4nc(C(=O)N5C[C@@H]6CN(c7cccc(C(=O)O)n7)C[C@@H]6C5)nn4c3)C2)c1 [Compound 415],***** (>2.5° C.=*****)
6,Cc1cccc([C@@]2(C)CCN(c3cc(C)c4nc(C(=O)N5CC[C@@]6(CCN(c7cccc(C(=O)O)n7)C6)C5)nn4c3)C2)c1 [Compound 416],***** (>2.5° C.=*****)
7,Cc1cc(N2CCC(C)(c3ccccc3Cl)C2)cn2nc(C(=O)N3CC[C@@]4(CCN(c5cccc(C(=O)O)n5)C4)C3)nc12 (some centres unmarked) [Compound 417],***** (>2.5° C.=*****)
8,Cc1cc(N2CC[C@](C)(c3cccc(Cl)c3)C2)cn2nc(C(=O)N3C[C@@H]4CN(c5cccc(C(=O)O)n5)C[C@@H]4C3)nc12 [Compound 418],***** (>2.5° C.=*****)
9,Cc1cc(N2CC[C@](C)(c3ccc(Cl)cc3)C2)cn2nc(C(=O)N3C[C@@H]4CN(c5cccc(C(=O)O)n5)C[C@@H]4C3)nc12 [Compound 420],***** (>2.5° C.=*****)
10,Cc1cc(N2CCC(C)(c3ccc(F)c(F)c3)C2)cn2nc(C(=O)N3C[C@@H]4CN(c5cccc(C(=O)O)n5)C[C@@H]4C3)nc12 (some centres unmarked) [Compound 421],***** (>2.5° C.=*****)
11,Cc1cc(N2CCC(C)(c3ccc(F)cc3)C2)cn2nc(C(=O)NC3CCN(c4ccnc(C(=O)O)c4)CC3)nc12 (centres unmarked) [Compound 422],***** (>2.5° C.=*****)
12,Cc1cc(N2CCC(C)(c3ccc(F)cn3)C2)cn2nc(C(=O)N3CC[C@@]4(CCN(c5cccc(C(=O)O)n5)C4)C3)nc12 (some centres unmarked) [Compound 423],*** (>1-1.5° C.=***)
13,Cc1cc(N2CCC(C)(c3cncc(F)c3)C2)cn2nc(C(=O)N3CC[C@@]4(CCN(c5cccc(C(=O)O)n5)C4)C3)nc12 (some centres unmarked) [Compound 424],**** (>1.5-2.5° C.=****)
14,CNC(=O)c1nc2c(C)cc(N3CCC(C)(c4ccccc4F)C3)cn2n1 (centres unmarked) [Compound 425],***** (>2.5° C.=*****)
15,Cc1cc(N2CCC(C)(c3ccccc3F)C2)cn2nc(C(=O)N3CC[C@@]4(CCN(c5cccc(C(=O)O)n5)C4)C3)nc12 (some centres unmarked) [Compound 426],***** (>2.5° C.=*****)
16,Cc1cc(N2CCC(C)(c3cccnc3)C2)cn2nc(C(=O)N3CC[C@@]4(CCN(c5cccc(C(=O)O)n5)C4)C3)nc12 (some centres unmarked) [Compound 427],*** (>1-1.5° C.=***)
17,Cc1cc(N2CC[C@@](C)(c3ccc(F)cc3)C2)cn2nc(C(=O)N3CC[C@@]4(CCN(c5cccc(C(=O)O)n5)C4)C3)nc12 [Compound 428],***** (>2.5° C.=*****)
18,Cc1cc(N2CC[C@](C)(c3ccc(F)cc3)C2)cn2nc(C(=O)N3CC[C@@]4(CCN(c5cccc(C(=O)O)n5)C4)C3)nc12 [Compound 429],***** (>2.5° C.=*****)
19,Cc1cc(N2CCC(C)(C#N)C2)cn2nc(C(=O)N3CC4CN(c5cccc(C(=O)O)n5)CC4C3)nc12 (centres unmarked) [Compound 430],* (0-0.5° C.=*)
20,Cc1cc(N2CC3(c4ccccc4)CC2C3)cn2nc(C(=O)N3CC4CN(c5cccc(C(=O)O)n5)CC4C3)nc12 (centres unmarked) [Compound 431],* (0-0.5° C.=*)
21,Cc1cc(N2CCOC(C)(c3ccccc3)C2)cn2nc(C(=O)N3CC4CN(c5cccc(C(=O)O)n5)CC4C3)nc12 (centres unmarked) [Compound 432],* (0-0.5° C.=*)
22,CNC(=O)c1cc2c(C)cc(N3CC[C@](C)(c4ccccc4)C3)cn2n1 [Compound 433],***** (>2.5° C.=*****)
23,CNC(=O)c1cn2cc(N3CC[C@](C)(c4ccccc4)C3)cc(C)c2n1 [Compound 434],***** (>2.5° C.=*****)
24,CNC(=O)c1nc2c(C)cc(N3CC[C@@](C)(c4ccccc4)C3)cc2o1 [Compound 435],***** (>2.5° C.=*****)
25,Cc1n[nH]c(C2C3COC2(c2nc4c(C)cc(OC[C@H](C)c5ccccc5)cn4n2)C3)n1 (some centres unmarked) [Compound 436],***** (>2.5° C.=*****)
26,Cc1cc(OC[C@H](C)c2ccccc2)cn2nc(C34CC(CO3)C4C(N)=O)nc12 (some centres unmarked) [Compound 437],*** (>1-1.5° C.=***)
27,"Cc1cc(N2CC[C@](C)(c3ccccc3)C2)cn2nc(C34CC(CO3)C4c3nc(N)n[nH]3)nc12 (stereo partly drawn) [Compound 438, 5-[1-[8-methyl-6-[(3R)-3-methyl-3-phenyl-pyrrolidin-1-yl]-[1,2,4]triazolo[1,5-a]pyridine-2-yl]-2-oxabicyclo[2.1.1]hexan-5-yl]-1H-1,2,4-triazol-3-amine]",***** (>2.5° C.=*****)
28,Cc1cc(N2CC[C@](C)(c3ccccc3)C2)cn2nc(C(=O)N3CC4(C(=O)O)CC3C4)nc12 [Compound 439],***** (>2.5° C.=*****)

# Same assay, conditions: Table B; temperature shift [Tm]compound-[Tm]vehicle; recombinant WIL-FL T46L
row,Compound,DSF
1,"Cc1cc(N2CC[C@](C)(c3ccccc3)C2)cn2nc(C34CC(C(=O)NC(C)(C)C(=O)O)(CO3)C4)nc12 [Compound 440, (R)-2-methyl-2-(1-(8-methyl-6-(3-methyl-3-phenylpyrrolidin-1-yl)-[1,2,4]triazolo[1,5-a]pyridin-2-yl)-2-oxabicyclo[2.1.1]hexane-4-carboxamido)propanoic acid]",***** (>2.5° C.=*****)
2,Cc1cc(N2CC[C@](C)(c3ccccc3)C2)cn2nc(C34CC(C(=O)N[C@@H]5COC[C@H]5O)(CO3)C4)nc12 [Compound 441],***** (>2.5° C.=*****)
3,Cc1cc(N2CC[C@](C)(c3ccccc3)C2)cn2nc(C34CC(C(=O)N[C@@H](C)CO)(CO3)C4)nc12 [Compound 442],***** (>2.5° C.=*****)
4,Cc1cc(N2CC[C@](C)(c3ccccc3)C2)cn2nc(C34CC(C(=O)NC(C)C)(CO3)C4)nc12 [Compound 443],***** (>2.5° C.=*****)
5,Cc1cc(N2CC[C@](C)(c3ccccc3)C2)cn2nc(C34CC(C(=O)NCC(=O)O)(CO3)C4)nc12 [Compound 444],***** (>2.5° C.=*****)
6,Cc1cc(N2CC[C@](C)(c3ccccc3)C2)cn2nc(C34CC(C(=O)N5CC6C(C5)C6C(=O)O)(CO3)C4)nc12 (some centres unmarked) [Compound 445],***** (>2.5° C.=*****)
7,Cc1cc(N2CC[C@](C)(c3ccccc3)C2)cn2nc(C34CC(C(=O)NC5CCOC5)(CO3)C4)nc12 (some centres unmarked) [Compound 446],***** (>2.5° C.=*****)
8,Cc1ncn(CC23COC(c4nc5c(C)cc(N6CC[C@](C)(c7ccccc7)C6)cn5n4)(C2)C3)n1 [Compound 447],***** (>2.5° C.=*****)
9,Cc1nc(CNC(=O)C23COC(c4nc5c(C)cc(N6CC[C@](C)(c7ccccc7)C6)cn5n4)(C2)C3)n[nH]1 [Compound 448],***** (>2.5° C.=*****)
10,Cc1cc(N2CC[C@](C)(c3ccccc3)C2)cn2nc(C34CC(Cn5ncnc5C)(CO3)C4)nc12 [Compound 449],***** (>2.5° C.=*****)
11,Cc1cnn(CC23COC(c4nc5c(C)cc(N6CC[C@](C)(c7ccccc7)C6)cn5n4)(C2)C3)n1 [Compound 450],***** (>2.5° C.=*****)
12,Cc1cc(N2CC[C@](C)(c3ccccc3)C2)cn2nc(C34CC(Cn5nncc5C)(CO3)C4)nc12 [Compound 451],***** (>2.5° C.=*****)
13,Cc1cc(NC(=O)C23COC(c4nc5c(C)cc(N6CC[C@](C)(c7ccccc7)C6)cn5n4)(C2)C3)cc(C(=O)O)n1 [Compound 452],***** (>2.5° C.=*****)
14,Cc1cc(N2CC[C@](C)(c3ccccc3)C2)cn2nc(C34CC(C(=O)NCc5ccnc(C(=O)O)c5)(CO3)C4)nc12 [Compound 453],***** (>2.5° C.=*****)
15,Cc1cc(N2CC[C@](C)(c3ccccc3)C2)cn2nc(C34CC(NC(=O)Nc5cccc(C(=O)O)n5)(CO3)C4)nc12 [Compound 454],***** (>2.5° C.=*****)
16,Cc1cc(N2CC[C@](C)(c3ccccc3)C2)cn2nc(C34CC(C(=O)Nc5ccnc(C(=O)O)c5)(CO3)C4)nc12 [Compound 456],***** (>2.5° C.=*****)
17,"Cc1cc(N2CC[C@](C)(c3ccccc3)C2)cn2nc(C34CC(CNC(=O)CC(C)(C)O)(CO3)C4)nc12 [Compound 457, (R)-3-hydroxy-3-methyl-N-((1-(8-methyl-6-(3-methyl-3-phenylpyrrolidin-1-yl)-[1,2,4]triazolo[1,5-a]pyridin-2-yl)-2-oxabicyclo[2.1.1]hexan-4-yl)methyl)butanamide]",***** (>2.5° C.=*****)
18,"Cc1cc(N2CC[C@](C)(c3ccccc3)C2)cn2nc(C34CC(COCC(=O)O)(CO3)C4)nc12 [Compound 459, 2-[[1-[8-methyl-6-[(3R)-3-methyl-3-phenyl-pyrrolidin-1-yl]-[1,2,4]triazolo[1,5-a]pyridin-2-yl]-2-oxabicyclo[2.1.1]hexan-4-yl]methoxy]acetic acid]",***** (>2.5° C.=*****)
19,"Cc1cc(N2CC[C@](C)(c3ccccc3)C2)cn2nc(C34CC(CC(=O)Nc5cccc(C(=O)O)n5)(CO3)C4)nc12 [Compound 460, 6-[[2-[1-[8-methyl-6-[(3R)-3-methyl-3-phenyl-pyrrolidin-1-yl]-[1,2,4]triazolo[1,5-a]pyridin-2-yl]-2-oxabicyclo[2.1.1]hexan-4-yl]acetyl]amino]pyridine-2-carboxylic acid]",***** (>2.5° C.=*****)
20,Cc1cc(N2CC[C@](C)(c3ccccc3)C2)cn2nc(C34CC(CNc5cccc(C(=O)O)n5)(CO3)C4)nc12 [Compound 461],***** (>2.5° C.=*****)
21,CCC(=O)NCC12COC(c3nc4c(C)cc(N5CC[C@](C)(c6ccccc6)C5)cn4n3)(C1)C2 [Compound 462],***** (>2.5° C.=*****)
22,CCS(=O)(=O)NCC12COC(c3nc4c(C)cc(N5CC[C@](C)(c6ccccc6)C5)cn4n3)(C1)C2 [Compound 463],***** (>2.5° C.=*****)
